These results are taken from patent US20220135567A1, “TYK2 PSEUDOKINASE LIGANDS” (Ventyx Biosciences, Inc., priority 2019, published 2022).

pIC50: −log10 of the molar value.

This assay concerns IFN-a/Jak1Tyk2. The experiment in a line: Co-stimulation assay in lysed whole blood: IFNa (JAK1/TYK2) stimulated STAT1 phosphorylation. In kind it is cell-based. The following applies: 20 min, lysed human whole blood, IFNa 100 ng/mL + GM-CSF 10 ng/mL, pSTAT1 by flow cytometry. The essentials: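 Red-cell-lysed human whole blood, pretreated with compound for 1 h at 37°C, was stimulated 20 min at 37°C with IFNa (100 ng/mL final) plus GM-CSF (10 ng/mL final). Cells were then fixed/lysed, permeabilised in Perm Buffer III and stained overnight for pSTAT1 (PE) and pSTAT5. Read-out by flow cytometry.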

Consider `CNc1cc(Nc2cccn(-c3ccc(OC)nn3)c2=O)nc2c(C(=O)NCC(F)(F)F)cnn12` [Compound 67, 5-((1-(6-methoxypyridazin-3-yl)-2-oxo-1,2-dihydropyridin-3-yl)amino)-7-(methylamino)-N-(2,2,2-trifluoroethyl)pyrazolo[1,5-a]pyrimidine-3-carboxamide], for which the pIC50 is 5.00 to 6.00.
To `CNc1cc(Nc2cccn(-c3ccccn3)c2=O)nc2c(C(=O)NC3CC3)cnn12` [Compound 33, N-cyclopropyl-7-(methylamino)-5-((2-oxo-2H-[1,2′-bipyridin]-3-yl)amino)pyrazolo[1,5-a]pyrimidine-3-carboxamide] belongs more than 7.00.
To `CNc1cc(Nc2ccccc2C(=O)OC)nc2c(C(=O)NC3CC3)cnn12` [Compound 28, methyl 2-((3-(cyclopropylcarbamoyl)-7-(methylamino)pyrazolo[1,5-a]pyrimidin-5-yl)amino)benzoate] belongs 6.00 to 7.00; to `CNc1cc(Nc2ccnn2CC(F)(F)F)nc2c(C(=O)NC3CC3)cnn12` [Compound 70, N-cyclopropyl-7-(methylamino)-5-((1-(2,2,2-trifluoroethyl)-1H-pyrazol-5-yl)amino)pyrazolo[1,5-a]pyrimidine-3-carboxamide], 6.00 to 7.00.
As for `CNc1cc(Nc2cccc3c2OCCO3)nc2c(C(=O)NCC(C)(O)CO)cnn12` (stereo not shown) [Compound 65, 5-((2,3-dihydrobenzo[b][1,4]doxin-5-yl)amino)-N-(2,3-dihydroxy-2-methylpropyl)-7-(methylamino)pyrazolo[1,5-a]pyrimidine-3-carboxamide], the pIC50 is more than 7.00.
The figure for `[2H]C([2H])([2H])Nc1cc(Nc2cc(Cl)cc3c2OCCO3)nc2c(C(=O)NC3CC3)cnn12` [Compound 77, 5-((7-chloro-2,3-dihydrobenzo[b][1,4]dioxin-5-yl)amino)-N-cyclopropyl-7-((methyl-d3)amino)pyrazolo[1,5-a]pyrimidine-3-carboxamide] is more than 7.00; for `CCOC(=O)c1nn(C)cc1Nc1cc(NC)n2ncc(C(=O)NC3CC3)c2n1` [Compound 42, ethyl 4-((3-(cyclopropylcarbamoyl)-7-(methylamino)pyrazolo[1,5-a]pyrimidin-5-yl)amino)-1-methyl-1H-pyrazole-3-carboxylate] it is 6.00 to 7.00; for `CNc1cc(Nc2cccc3c2OCCC3)nc2c(C(=O)NC3CCC3)cnn12` [Compound 89, 5-(chroman-8-ylamino)-N-cyclobutyl-7-(methylamino)pyrazolo[1,5-a]pyrimidine-3-carboxamide] it is more than 7.00.
`CNc1cc(Nc2ccnn2C)nc2c(C(=O)NC3CC3)cnn12` [Compound 53, N-cyclopropyl-5-((1-methyl-1H-pyrazol-5-yl)amino)-7-(methylamino)pyrazolo[1,5-a]pyrimidine-3-carboxamide]: the negative logarithm of the IC50 (pIC50) was 6.00 to 7.00.
Turning to `CNc1cc(Nc2cccn(-c3ccc(OC)nn3)c2=O)nc2c(C(=O)NC3CCOC3)cnn12` (stereo not shown) [Compound 106, 5-((1-(6-methoxypyridazin-3-yl)-2-oxo-1,2-dihydropyridin-3-yl)amino)-7-(methylamino)-N-(tetrahydrofuran-3-yl)pyrazolo[1,5-a]pyrimidine-3-carboxamide], the negative-log IC50 (pIC50) is 6.00 to 7.00.
To `CNc1cc(Nc2c(Cl)ccc3c2OCO3)nc2c(C(=O)NCC(C)(C)CO)cnn12` [Compound 49, 5-((5-chlorobenzo[d][1,3]dioxol-4-yl)amino)-N-(3-hydroxy-2,2-dimethylpropyl)-7-(methylamino)pyrazolo[1,5-a]pyrimidine-3-carboxamide] belongs 5.00 to 6.00; to `CNc1cc(Nc2ccccc2-n2cccn2)nc2c(C(=O)NC3CC3)cnn12` [Compound 34, 5-((2-(1H-pyrazol-1-yl)phenyl)amino)-N-cyclopropyl-7-(methylamino)pyrazolo[1,5-a]pyrimidine-3-carboxamide], less than 6.52; to `CNc1cc(Nc2cc(Cl)ccc2OC(F)(F)F)nc2c(C(=O)NC3CC3)cnn12` [Compound 57, 5-((5-chloro-2-(trifluoromethoxy)phenyl)amino)-N-cyclopropyl-7-(methylamino)pyrazolo[1,5-a]pyrimidine-3-carboxamide], 6.00 to 7.00.
To `CNc1cc(Nc2ccccc2OC)nc2c(C(=O)NCC(C)(C)CO)cnn12` [Compound 22, N-(3-hydroxy-2,2-dimethylpropyl)-5-((2-methoxyphenyl)amino)-7-(methylamino)pyrazolo[1,5-a]pyrimidine-3-carboxamide] belongs more than 7.00; to `CNc1cc(Nc2cccc3c2OC(F)(F)O3)nc2c(C(=O)NCC(C)(C)CO)cnn12` [Compound 48, 5-((2,2-difluorobenzo[d][1,3]dioxol-4-yl)amino)-N-(3-hydroxy-2,2-dimethylpropyl)-7-(methylamino)pyrazolo[1,5-a]pyrimidine-3-carboxamide], more than 7.00; to `CNc1cc(Nc2cccn(C)c2=O)nc2c(C(=O)NC3CC(F)(F)C3)cnn12` [Compound 91, N-(3,3-difluorocyclobutyl)-5-((1-methyl-2-oxo-1,2-dihydropyridin-3-yl)amino)-7-(methylamino)pyrazolo[1,5-a]pyrimidine-3-carboxamide], 5.00 to 6.00.
To `CNc1cc(Nc2cccn(-c3cccc(C)n3)c2=O)nc2c(C(=O)NC3CC(O)C3)cnn12` (stereo not shown) [Compound 100, N-(3-hydroxycyclobutyl)-5-((6′-methyl-2-oxo-2H-[1,2′-bipyridin]-3-yl)amino)-7-(methylamino)pyrazolo[1,5-a]pyrimidine-3-carboxamide] belongs 5.00 to 6.00; to `CNc1cc(Nc2cccc3c2OCCO3)nc2c(C(=O)NCC(C)(C)O)cnn12` [Compound 63, 5-((2,3-dihydrobenzo[b][1,4]dioxin-5-yl)amino)-N-(2-hydroxy-2-methylpropyl)-7-(methylamino)pyrazolo[1,5-a]pyrimidine-3-carboxamide], more than 7.00.
As for `[2H]C([2H])([2H])Nc1cc(Nc2cc(F)cc3c2OCCO3)nc2c(C(=O)N[C@H]3C[C@H]3F)cnn12` [Compound 79, 5-((7-fluoro-2,3-dihydrobenzo[b][1,4]dioxin-5-yl)amino)-N-((1S,2R)-2-fluorocyclopropyl)-7-((methyl-d3)amino)pyrazolo[1,5-a]pyrimidine-3-carboxamide], the pIC50 was more than 7.00.
To `CC(C)(CO)CNC(=O)c1cnn2c(NC3CC3)cc(Nc3cccc4c3OCO4)nc12` [Compound 59, 5-(benzo[d][1,3]dioxol-4-ylamino)-7-(cyclopropylamino)-N-(3-hydroxy-2,2-dimethylpropyl)pyrazolo[1,5-a]pyrimidine-3-carboxamide] belongs 5.00 to 6.00.
On to `CNc1cc(Nc2cccc(C(=O)OC)c2)nc2c(C(=O)NC3CC3)cnn12` [Compound 29, methyl 3-((3-(cyclopropylcarbamoyl)-7-(methylamino)pyrazolo[1,5-a]pyrimidin-5-yl)amino)benzoate], for which the negative logarithm of the IC50 (pIC50) is 6.00 to 7.00.
To `CNc1cc(Nc2cn(C)nc2C(=O)Nc2ccc(N(C)C)cc2)nc2c(C(=O)NC3CC3)cnn12` [Compound 41, N-cyclopropyl-5-((3-((4-(dimethylamino)phenyl)carbamoyl)-1-methyl-1H-pyrazol-4-yl)amino)-7-(methylamino)pyrazolo[1,5-a]pyrimidine-3-carboxamide] belongs more than 7.00.
